Results published in patent US20030139616A1, “Method of searching for arteriosclerosis inhibitors and shrinkers” (priority 2000, published 2003).
Blank lines part the entries; values can stand above or below the compound they belong to.

Legend:
[1] = test system: foam mouse macrophages; assay: Defoaming-promoting activity (cholesterol efflux into medium); assay type: cell-based; settings: for Amount of cholesterol transferred (control group = 100%) Mean: method of Example 4; for action on transfer of cholesterol: result in words, summary of Tables 3 and 7
Description: The activity of the test compound on defoaming was measured by treating the foam mouse macrophages prepared in Example 1, with RPMI 1640-25 mM HEPES medium (pH 7) containing the test compound for 24 hours, followed by adding 20% fetal bovine serum (JRH Ltd.), and determining the radioactivity released into the medium after further culture for 24 hours. The defoaming-promoting activity of a group treated with the compound was calculated as a ratio (%) of the radioactivity corrected by a blank value to that of a control group. The blank value used was the radioactivity in the absence of the test compound and 20% fetal bovine serum. The defoaming-promoting activities of the control group and the group treated with the compound were corrected by the amount of cell protein measured by the BCA assay kit from Pierce Ltd. after the cells were solubilized with 0.1 N NaOH/0.1% SDS solution.
The promoting action of Compound A on defoaming was measured by using the method described in Example 4.

[2] = test system: foamed macrophages; assay: Intracellular cholesteryl ester content by enzyme method; assay type: cell-based, mouse; settings: for Content of intracellular cholesteryl esters (control group = 100%) Mean: method of Example 5 (enzyme method); for action on reduction of the cholesteryl ester content: result in words, summary of Tables 4 and 8
Description: The mouse peritoneal macrophages prepared in Example 1 were cultured for 24 hours in an RPMI 1640-25 mM HEPES medium (pH 7) containing β-VLDL (150 μg/ml) and a conjugate of 0.2 mM oleic acid/0/2% bovine serum albumin to obtain foam cells in which cholesteryl esters were accumulated. These foamed macrophages were treated with an RPMI 1640-25 mM HEPES medium (pH 7) containing the test compound for 24 hours, and then the whole lipid was extracted. The lipid thus extracted was dissolved in isopropanol and measured for the amounts of the whole cholesterol and free cholesterol by the enzyme method (E-Test Wako, Wako Ltd.), and, from the difference therebetween, the amount of cholesteryl esters was calculated. The amounts of cell protein in a control group and a group treated with the compound were measured with a BCA assay kit from Pierce Ltd. after the cells were solubilized with 0.1 N NaOH/0.1% SDS solution, and assuming that the amount of cholesteryl esters (μg/mg cell protein) in the cells in the control group was 100%, the amount of cholesteryl esters (%) in the group treated with the compound was calculated.
The action of Compound A on reduction of the content of intracellular cholesteryl esters was measured by using the method described in Example 5.

[3] = test system: Mouse peritoneal macrophages; assay: Inhibitory action on synthesis of intracellular cholesteryl esters; assay type: cell-based; settings: for Content of intracellular cholesteryl esters (control group = 100%) TLC method Mean / Content of intracellular cholesteryl esters (control group = 100%) Methanol method Mean: 24 hours, 25-hydroxycholesterol
Description: Mouse peritoneal macrophages prepared in the method described in Example 1 were cultured for 24 hours in an RPMI 1640-25 mM HEPES medium (pH 7) containing 1% fetal bovine serum and [1,2,6,7-^3H]-cholesterol (37 Kbq/ml, NEN Ltd.). The macrophages were labeled with ^3H-cholesterol and then cultured for 24 hours in an RPMI 1640-25 mM HEPES medium (pH 7) containing 2-[6-chloro-4-(2-methylphenyl)-2-oxo-2H-chromene-3-yl]-N-(2,6-dimethoxyphenyl) acetamide (referred to hereinafter as Compound A), 25-hydroxycholesterol (5 μg/ml, Sigma) and 0.2 mM oleic acid/0.2% bovine serum albumin, and the content of synthesized intracellular cholesteryl esters was quantified by the TLC fractionation method or the aqueous methanol extraction method (hereinafter also referred to as the methanol method). The measurement by the TLC fractionation method was conducted by extracting the whole intracellular lipid with a hexane-isopropanol mixture (3:2, v/v) and then fractionating the lipid in TLC under the same conditions as in Example 1 to quantify the intracellular cholesteryl esters. The measurement by the aqueous methanol extraction method was conducted by treating the cells with 80% methanol for 10 minutes, then solubilizing the cells with 0.1 N NaOH/0.1% SDS solution, and measuring their radioactivity. Each value of radioactivity was corrected by the amount of cell proteins measured with a BCA assay kit (Pierce Ltd.) after the cells were solubilized with 0.1 N NaOH/0.1% SDS solution, and assuming that the radioactivity (dpm/mg cell protein) of the control group in the absence of the test compound was 100%, the content of intracellular cholesteryl esters (%) in the group treated with Compound A was calculated.

[4] = test system: Foam cells derived from mouse peritoneal macrophages; assay: Promoting action on decomposition of intracellular cholesteryl esters; assay type: cell-based; settings: for Content of intracellular cholesteryl esters (control group = 100%) TLC method Mean / Content of intracellular cholesteryl esters (control group = 100%) Methanol method Mean: 48 hours
Description: Foam cells derived from mouse peritoneal macrophages, prepared in the method described in Example 1, were cultured for 48 hours in an RPMI 1640-25 mM HEPES medium (pH 7) containing Compound A, and a reduction in the intracellular cholesteryl ester content was quantified by a TLC fractionation method or an aqueous methanol extraction method. The measurement by the TLC fractionation method was conducted by extracting the whole intracellular lipid with a hexane-isopropanol mixture (3:2, v/v) and then fractionating the lipid by TLC under the same conditions as in Example 1 to quantify the intracellular cholesteryl esters. The measurement by the aqueous methanol extraction method was conducted by treating the cells with 80% methanol for 10 minutes, then solubilizing the cells with 0.1 N NaOH/0.1% SDS solution, and measuring their radioactivity. Each value of radioactivity was corrected by the amount of cell proteins measured with a BCA assay kit (Pierce Ltd.) after the cells were solubilized with 0.1 N NaOH/0.1% SDS solution, and assuming that the radioactivity (dpm/mg cell protein) of the control group in the absence of the test compound was 100%, the content of intracellular cholesteryl esters (%) in the group treated with Compound A was calculated.

[5] = test system: foam macrophages; assay: Measurement of regulatory activity on intracellular cholesteryl ester cycle (aqueous methanol extraction); assay type: cell-based, mouse
Description: According to the method of Hakamada et al. (“Jikken Igaku (Experimental Medicine), Extra Issue”, vol. 14, No. 12, Circulation Study Protocol, pp. 49-52 (1996)), peritoneal macrophages were prepared from C57BL6J mice stimulated with thioglycolate, and then cultured for 24 hours in RPMI 1640-25 mM HEPES (pH 7) containing β-very low-density lipoprotein (β-VLDL, 150 μg cholesterol/ml) prepared according to the method of Ishii et al. (Arterioscler. Thromb., 12, 1139-1145, 1992), a conjugate of 0.2 mM oleic acid/0.2% bovine serum albumin, and [1,2,6,7-^3H]-cholesterol (NEN, 37 KBq/ml) to obtain foam cells in which cholesteryl esters were accumulated. […] A part of the extract was fractionated by the TLC method (Merck Silica Gel Plate No. 5582, developing solvent: petroleum ether/diethyl ether/acetic acid=9:1:0.1), free cholesterol and cholesteryl ester fractions were cut off, a liquid scintillator was added, and the radioactivity thereof was measured.
In an RPMI 1640-HEPES medium (pH 7) containing the test compound, the foam macrophages prepared in Example 1 were cultured for 24 hours. The cells were extracted with 80% aqueous methanol for 10 minutes and then solubilized with 0.1 NaOH/0.1% SDS solution, a liquid scintillator was added to a portion thereof, and its radioactivity was measured. […]

Content of intracellular cholesteryl esters (control group = 100%) Mean ([2]; 0.01 mM): 63%
Content of intracellular cholesteryl esters (control group = 100%) Mean ([2]; 0.1 mM): 48%
action on reduction of the cholesteryl ester content [2]: strong action
Structure (SMILES): COc1cccc(OC)c1NC(=O)Cc1c(-c2ccccc2C)c2cc(Cl)ccc2oc1=O [Compound A, 2-[6-chloro-4-(2-methylphenyl)-2-oxo-2H-chromene-3-yl]-N-(2,6-dimethoxyphenyl) acetamide]
Amount of cholesterol transferred (control group = 100%) Mean ([1]; 0.01 mM): 142%
Amount of cholesterol transferred (control group = 100%) Mean ([1]; 0.1 mM): 191%
action on transfer of cholesterol [1]: strong action
Content of intracellular cholesteryl esters (control group = 100%) TLC method Mean ([3]; 0.01 mM): 44%
Content of intracellular cholesteryl esters (control group = 100%) Methanol method Mean ([3]; 0.01 mM): 41%
Content of intracellular cholesteryl esters (control group = 100%) TLC method Mean ([3]; 0.03 mM): 16%
Content of intracellular cholesteryl esters (control group = 100%) Methanol method Mean ([3]; 0.03 mM): 19%
Content of intracellular cholesteryl esters (control group = 100%) TLC method Mean ([3]; 0.1 mM): 5%
Content of intracellular cholesteryl esters (control group = 100%) Methanol method Mean ([3]; 0.1 mM): 9%
inhibitory activity on synthesis of cholesteryl esters ([3]; result in words, summary of Table 5): potent inhibitory activity
Content of intracellular cholesteryl esters (control group = 100%) TLC method Mean ([4]; 0.01 mM): 71%
Content of intracellular cholesteryl esters (control group = 100%) Methanol method Mean ([4]; 0.01 mM): 74%
Content of intracellular cholesteryl esters (control group = 100%) TLC method Mean ([4]; 0.1 mM): 8%
Content of intracellular cholesteryl esters (control group = 100%) Methanol method Mean ([4]; 0.1 mM): 14%
promoting activity on degradation of cholesteryl esters ([4]; result in words, summary of Table 6): strong promoting activity

Cholesteryl ester content (%) ([2]; 100 μM, 24 hours, enzyme method, control = 100%): 78 ± 4 p < 0.01 %
action on reduction of the cholesteryl ester content [2]: exerts an action
Structure (SMILES): CCCC(=O)Nc1ncnc2c1ncn2[C@@H]1O[C@@H]2COP(=O)(O)O[C@H]2[C@H]1OC(=O)CCC [dbc-AMP, Dibutyryl cyclic AMP, reference compound]
Cholesteryl ester content (%) ([5]; 100 μM, 24 hours, 80% aqueous methanol extraction, control = 100%): 60 ± 12 p < 0.01 %
cholesteryl ester cycle-regulating action ([5]; result in words, summary of Table 2): potent cholesteryl ester-hydrolytic activity
Amount of cholesterol efflux (%) ([1]; 100 μM, 24 hours then 20% fetal bovine serum 24 hours, control = 100%): 160 ± 15 p < 0.01 %
action on transfer of cholesterol [1]: exerts an action
